According to patent US20200264182A1, “METHOD FOR DETECTING PROSTATE CANCER” (J-OIL MILLS, INC., priority 2017, published 2020):
Where no end group is shown, it is not given here.

Experiment: FAC binding constant
Conditions: at 25° C.
Method in brief: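 Values come from frontal analysis by FAC at 25° C, pairing fucose α1→6 specific lectins (PhoSL, SRL, NSL, LSL) with various sugar chains.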

[1] = sugar chain having fucose other than α1→6 fucose

Binding constant for sugar chain No. 728 (Table 3: sugar chain having fucose other than α1→6 fucose): <1000 M⁻¹
Binding constant for sugar chain No. 419 [1]: <1000 M⁻¹
Binding constant for sugar chain No. 420 [1]: <1000 M⁻¹
Binding constant for sugar chain No. 718 [1]: <1000 M⁻¹
Binding constant for sugar chain No. 719 [1]: <1000 M⁻¹
Binding constant for sugar chain No. 720 [1]: <1000 M⁻¹
Binding constant for sugar chain No. 721 [1]: <1000 M⁻¹
Binding constant for sugar chain No. 722 [1]: <1000 M⁻¹
Binding constant for sugar chain No. 723 [1]: <1000 M⁻¹
Binding constant for sugar chain No. 726 [1]: <1000 M⁻¹
Binding constant for sugar chain No. 727 [1]: <1000 M⁻¹
Binding constant for sugar chain No. 729 [1]: <1000 M⁻¹
Binding constant for sugar chain No. 730 [1]: <1000 M⁻¹
Binding constant for sugar chain No. 731 [1]: <1000 M⁻¹
Binding constant for sugar chain No. 739 [1]: <1000 M⁻¹
Binding constant for sugar chain No. 909 [1]: <1000 M⁻¹
Binding constant for sugar chain No. 910 [1]: <1000 M⁻¹
Binding constant for sugar chain No. 931 [1]: <1000 M⁻¹
Binding constant for sugar chain No. 932 [1]: <1000 M⁻¹
Binding constant for sugar chain No. 933 [1]: <1000 M⁻¹
Binding constant for sugar chain No. 001 (sugar chain having no fucose): <1000 M⁻¹
Binding constant for sugar chain No. 002 (sugar chain having no fucose): <1000 M⁻¹
Binding constant for sugar chain No. 003 (sugar chain having no fucose): <1000 M⁻¹
Binding constant for sugar chain No. 004 (sugar chain having no fucose): <1000 M⁻¹
Binding constant for sugar chain No. 005 (sugar chain having no fucose): <1000 M⁻¹
Binding constant for sugar chain No. 006 (sugar chain having no fucose): <1000 M⁻¹
Binding constant for sugar chain No. 007 (sugar chain having no fucose): <1000 M⁻¹
Binding constant for sugar chain No. 008 (sugar chain having no fucose): <1000 M⁻¹
Binding constant for sugar chain No. 009 (sugar chain having no fucose): <1000 M⁻¹
Binding constant for sugar chain No. 010 (sugar chain having no fucose): <1000 M⁻¹
Binding constant for sugar chain No. 011 (sugar chain having no fucose): <1000 M⁻¹
Binding constant for sugar chain No. 012 (sugar chain having no fucose): <1000 M⁻¹
Binding constant for sugar chain No. 013 (sugar chain having no fucose): <1000 M⁻¹
Binding constant for sugar chain No. 014 (sugar chain having no fucose): <1000 M⁻¹
Binding constant for sugar chain No. 101 (sugar chain having no fucose): <1000 M⁻¹
Binding constant for sugar chain No. 103 (sugar chain having no fucose): <1000 M⁻¹
Binding constant for sugar chain No. 104 (sugar chain having no fucose): <1000 M⁻¹
Binding constant for sugar chain No. 105 (sugar chain having no fucose): <1000 M⁻¹
Binding constant for sugar chain No. 107 (sugar chain having no fucose): <1000 M⁻¹
Binding constant for sugar chain No. 108 (sugar chain having no fucose): <1000 M⁻¹
Binding constant for sugar chain No. 301 (sugar chain having no fucose): <1000 M⁻¹
Binding constant for sugar chain No. 304 (sugar chain having no fucose): <1000 M⁻¹
Binding constant for sugar chain No. 305 (sugar chain having no fucose): <1000 M⁻¹
Binding constant for sugar chain No. 307 (sugar chain having no fucose): <1000 M⁻¹
Binding constant for sugar chain No. 308 (sugar chain having no fucose): <1000 M⁻¹
Binding constant for sugar chain No. 313 (sugar chain having no fucose): <1000 M⁻¹
Binding constant for sugar chain No. 314 (sugar chain having no fucose): <1000 M⁻¹
Binding constant for sugar chain No. 323 (sugar chain having no fucose): <1000 M⁻¹
Binding constant for sugar chain No. 501 (sugar chain having no fucose): <1000 M⁻¹
Binding constant for sugar chain No. 502 (sugar chain having no fucose): <1000 M⁻¹
Binding constant for sugar chain No. 503 (sugar chain having no fucose): <1000 M⁻¹
Binding constant for sugar chain No. 504 (sugar chain having no fucose): <1000 M⁻¹
Binding constant for sugar chain No. 701 (sugar chain having no fucose): <1000 M⁻¹
Binding constant for sugar chain No. 702 (sugar chain having no fucose): <1000 M⁻¹
Binding constant for sugar chain No. 703 (sugar chain having no fucose): <1000 M⁻¹
Binding constant for sugar chain No. 704 (sugar chain having no fucose): <1000 M⁻¹
Binding constant for sugar chain No. 705 (sugar chain having no fucose): <1000 M⁻¹
Binding constant for sugar chain No. 706 (sugar chain having no fucose): <1000 M⁻¹
Binding constant for sugar chain No. 707 (sugar chain having no fucose): <1000 M⁻¹
Binding constant for sugar chain No. 708 (sugar chain having no fucose): <1000 M⁻¹
Binding constant for sugar chain No. 709 (sugar chain having no fucose): <1000 M⁻¹
Binding constant for sugar chain No. 710 (sugar chain having no fucose): <1000 M⁻¹
Binding constant for sugar chain No. 711 (sugar chain having no fucose): <1000 M⁻¹
Binding constant for sugar chain No. 712 (sugar chain having no fucose): <1000 M⁻¹
Binding constant for sugar chain No. 713 (sugar chain having no fucose): <1000 M⁻¹
Binding constant for sugar chain No. 715 (sugar chain having no fucose): <1000 M⁻¹
Binding constant for sugar chain No. 716 (sugar chain having no fucose): <1000 M⁻¹
Binding constant for sugar chain No. 717 (sugar chain having no fucose): <1000 M⁻¹
Binding constant for sugar chain No. 724 (sugar chain having no fucose): <1000 M⁻¹
Binding constant for sugar chain No. 725 (sugar chain having no fucose): <1000 M⁻¹
Binding constant for sugar chain No. 732 (sugar chain having no fucose): <1000 M⁻¹
Binding constant for sugar chain No. 733 (sugar chain having no fucose): <1000 M⁻¹
Binding constant for sugar chain No. 734 (sugar chain having no fucose): <1000 M⁻¹
Binding constant for sugar chain No. 735 (sugar chain having no fucose): <1000 M⁻¹
Binding constant for sugar chain No. 736 (sugar chain having no fucose): <1000 M⁻¹
Binding constant for sugar chain No. 737 (sugar chain having no fucose): <1000 M⁻¹
Binding constant for sugar chain No. 738 (sugar chain having no fucose): <1000 M⁻¹
Binding constant for sugar chain No. 901 (sugar chain having no fucose): <1000 M⁻¹
Binding constant for sugar chain No. 902 (sugar chain having no fucose): <1000 M⁻¹
Binding constant for sugar chain No. 903 (sugar chain having no fucose): <1000 M⁻¹
Binding constant for sugar chain No. 905 (sugar chain having no fucose): <1000 M⁻¹
Binding constant for sugar chain No. 906 (sugar chain having no fucose): <1000 M⁻¹
Binding constant for sugar chain No. 907 (sugar chain having no fucose): <1000 M⁻¹
Binding constant for sugar chain No. 015 (sugar chain having α1→6 fucose): 500000 M⁻¹
Binding constant for sugar chain No. 201 (sugar chain having α1→6 fucose): 460000 M⁻¹
Binding constant for sugar chain No. 202 (sugar chain having α1→6 fucose): 400000 M⁻¹
Binding constant for sugar chain No. 203 (sugar chain having α1→6 fucose): 330000 M⁻¹
Binding constant for sugar chain No. 401 (sugar chain having α1→6 fucose): 350000 M⁻¹
Binding constant for sugar chain No. 402 (sugar chain having α1→6 fucose): 200000 M⁻¹
Binding constant for sugar chain No. 403 (sugar chain having α1→6 fucose): 340000 M⁻¹
Binding constant for sugar chain No. 404 (sugar chain having α1→6 fucose): 390000 M⁻¹
Binding constant for sugar chain No. 405 (sugar chain having α1→6 fucose): 320000 M⁻¹
Binding constant for sugar chain No. 406 (sugar chain having α1→6 fucose): 220000 M⁻¹
Binding constant for sugar chain No. 407 (sugar chain having α1→6 fucose): 280000 M⁻¹
Binding constant for sugar chain No. 410 (sugar chain having α1→6 fucose): 220000 M⁻¹
Binding constant for sugar chain No. 413 (sugar chain having α1→6 fucose): 280000 M⁻¹
Binding constant for sugar chain No. 418 (sugar chain having α1→6 fucose): 220000 M⁻¹
Binding constant for sugar chain No. 601 (sugar chain having α1→6 fucose): 240000 M⁻¹
Binding constant for sugar chain No. 602 (sugar chain having α1→6 fucose): 120000 M⁻¹
Substance: PhoSL: fucose α1→6 specific lectin that can be extracted from Pholiota squarrosa, SEQ ID No. 1 (APVPVTKLVCDGDTYKCTAYLDFGDGRWVAQWDTNVFHTG; not fully specified; ends and bridges not checked)
